Assay results reported in patent US20090123907A1 (priority 2004, published 2009).

Test system: platelets
Test: Platelets in 2% lysine citrate and CPD, 15 days storage
Assay type: cell-based
Conditions: PRP, CPD + 2% lysine citrate, room temperature
Description: The second experiment was similar to the first platelet experiment reported above with the primary difference that the primary anticoagulant was CPD (citrate-phosphate-dextrose). This anticoagulant contains approximately 0.4% citrate by weight but also contains dextrose as an energy source for the platelets (and also, unfortunately, for any bacteria that may be present). […] It was believed that the CPD might further stabilize the platelets by providing an energy source.

SMILES: NCCCC[C@H](N)C(=O)O.O=C(O)CC(O)(CC(=O)O)C(=O)O [Lysine Citrate, lysine citrate]
- Clotting time (Day 1): 29 s
- Count (platelets) (Day 1): 2.41 × 10^5 per μl
- LDH (Day 1): 98 IU/L
- Clotting time (Day 2): 30 s
- Count (platelets) (Day 2): 2.41 × 10^5 per μl
- LDH (Day 2): 96 IU/L
- Clotting time (Day 3): 30 s
- Count (platelets) (Day 3): 2.40 × 10^5 per μl
- LDH (Day 3): 97 IU/L
- Clotting time (Day 4): 31 s
- Count (platelets) (Day 4): 2.40 × 10^5 per μl
- LDH (Day 4): 98 IU/L
- Clotting time (Day 5): 32 s
- Count (platelets) (Day 5): 2.38 × 10^5 per μl
- LDH (Day 5): 99 IU/L
- Clotting time (Day 6): 30 s
- Count (platelets) (Day 6): 2.41 × 10^5 per μl
- LDH (Day 6): 101 IU/L
- Clotting time (Day 7): 28 s
- Count (platelets) (Day 7): 2.42 × 10^5 per μl
- LDH (Day 7): 100 IU/L
- Clotting time (Day 8): 28 s
- Count (platelets) (Day 8): 2.40 × 10^5 per μl
- LDH (Day 8): 102 IU/L
- Clotting time (Day 9): 31 s
- Count (platelets) (Day 9): 2.38 × 10^5 per μl
- LDH (Day 9): 100 IU/L
- Clotting time (Day 10): 30 s
- Count (platelets) (Day 10): 2.38 × 10^5 per μl
- LDH (Day 10): 98 IU/L
- Clotting time (Day 11): 29 s
- Count (platelets) (Day 11): 2.35 × 10^5 per μl
- LDH (Day 11): 103 IU/L
- Clotting time (Day 12): 30 s
- Count (platelets) (Day 12): 2.34 × 10^5 per μl
- LDH (Day 12): 101 IU/L
- Clotting time (Day 13): 30 s
- Count (platelets) (Day 13): 2.34 × 10^5 per μl
- LDH (Day 13): 103 IU/L
- Clotting time (Day 14): 31 s
- Count (platelets) (Day 14): 2.35 × 10^5 per μl
- LDH (Day 14): 105 IU/L
- Clotting time (Day 15): 26 s
- Count (platelets) (Day 15): 2.28 × 10^5 per μl
- LDH (Day 15): 122 IU/L
